Data published in EP0079397A1, “Asymmetrically substituted (2,4,6-triodoanilides) of dicarboxylic acids, their preparation and X-ray contrast agents containing them” (SCHERING AKTIENGESELLSCHAFT, priority 1981, dated 1983).
Read-outs that look alike come from different tables or passages of the source.

Key:
Ratte [1] = test: Neural tolerance after intracisternal injection in rats; assay type: in vivo; conditions: injection into Cisterna suboccipitalis, 200-250 g rats, diluted with 3% mannitol solution
Description: (§1) • 1) Injektion der Kontrastmittel als Megluminsalzlösungen mit 180 mg Jod/ml mit einer Geschwindigkeit von 0,8 ml/min bei 100 g schweren männlichen und weiblichen Ratten. • 2) Männlichen und weiblichen Ratten im Gewicht von etwa 100 g wurden in leichter Äthernarkose je 0,04 ml unterschiedlich konzentrierter Kontrastmittellösungen nach der Methode von Valzelli durch eine natürliche Knochenspalte des Schädels zwischen Joch- und Hinterhauptbein intrazerebral injiziert. Die Injektion erfolgte mit einer Hamilton Spritze 710 N, bei der die Einstichtiefe auf 10 mm begrenzt ist. Je Präparat wurden mindestens 4 Dosierungen an 10 Tieren untersucht. Als Wirkungskriterien wurden über den Zeitraum von 24 Stunden Exzitationszustände, schwere Haltungsanomalien, Koma und Tod bewertet. • 3) Bei grundsätzlich gleicher Versuchsanlage wie unter 2) beschrieben, wurden 200-250 g schweren Ratten die Kontrastmittel in die Cisterna suboccipitalis injiziert. Die Kontrastmittel wurden mit 3%iger Mannit-lösung verdünnt, um den osmotischen Druck anzupassen. • 4) Ratten (ca. 150 g Körpergewicht) wurde in Ithernarkose ein Polyäthylenschlauch in den Ductus choledochus eingebunden. […]

Ratte [2] = test: Neural tolerance after pericerebral injection in rats (method of Valzelli); assay type: in vivo; conditions: 0,04 ml injected, ca. 100 g rats, 24 h observation: excitation, posture anomalies, coma, death
Description: as §1

[3] = Protein binding to human serum; assay type: in vitro ADME; conditions: at ca. 1,2 mg Jod/ml, meglumine salts, read-out: Proteinbindung an Humanserum (converted)
Ratte [4] = test: Acute intravenous toxicity (DL50) in rats; assay type: in vivo; conditions: meglumine salt solutions 180 mg Jod/ml, 0,8 ml/min, 100 g rats
Description: as §1

[5] = Partition coefficient butanol/water; assay type: physicochemical; conditions: meglumine salts
in vivo [6] = test: in vivo; parameters: species or system Ratte; conditions: rat, iv, 60 mg/kg
Description: • 1) Injektion der Kontrastmittel als Megluminsalzlösungen mit 180 mg Jod/ml mit einer Geschwindigkeit von 0,8 ml/min bei 100 g schweren männlichen und weiblichen Ratten. • 2) Männlichen und weiblichen Ratten im Gewicht von etwa 100 g wurden in leichter Äthernarkose je 0,04 ml unterschiedlich konzentrierter Kontrastmittellösungen nach der Methode von Valzelli durch eine natürliche Knochenspalte des Schädels zwischen Joch- und Hinterhauptbein intrazerebral injiziert. Die Injektion erfolgte mit einer Hamilton Spritze 710 N, bei der die Einstichtiefe auf 10 mm begrenzt ist. Je Präparat wurden mindestens 4 Dosierungen an 10 Tieren untersucht. Als Wirkungskriterien wurden über den Zeitraum von 24 Stunden Exzitationszustände, schwere Haltungsanomalien, Koma und Tod bewertet. • 3) Bei grundsätzlich gleicher Versuchsanlage wie unter 2) beschrieben, wurden 200-250 g schweren Ratten die Kontrastmittel in die Cisterna suboccipitalis injiziert. Die Kontrastmittel wurden mit 3%iger Mannit-lösung verdünnt, um den osmotischen Druck anzupassen. • 4) Ratten (ca. 150 g Körpergewicht) wurde in Ithernarkose ein Polyäthylenschlauch in den Ductus choledochus eingebunden. Etwa eine Stunde nachdem die Tiere aus der Narkose erwacht waren, wurden die Kontrastmittel in einer Dosis von 60 mg Jod/kg intravenös injiziert und die Galle bis 3 Stunden nach der Injektion fraktioniert gesammelt. • 5) Intakten Ratten von etwa 100 g Körpergewicht wurde 20 Minuten vor der Verabreichung des Kontrastmittels 5 ml Wasser und dann in 1-stündigem Abstand nach der Verabreichung der Prüfsubstanzen 3 mal je 2 ml Wasser oral verabreicht. bis 3 Stunden nach der i.v. Injektion des Kontrastmittels in einer Dosis von 60 mg Jod/kg wurde der Harn quantitativ gesammelt. • 4), 5) die Messung des Kontrastmittels erfolgte entweder aufgrund der ^131J-Aktivität in den Proben oder bei nicht radioaktiv markierten Kontrastmitteln mit Hilfe der Röntgenfluoreszenz des Jods.

Leber des Hundes = test: Maximum enrichment in dog liver by computed tomography; conditions: 360 mg Jod/kg i.v.; for maximale Anreicherung in der Leber des Hundes: meglumine salt solutions 180 mg Jod/ml, CT up to 90 min
Description: (§2) Die Werte wurden an gesunden weiblichen und männlichen Beagle-Hunden (Züchter: Schering) im Gewicht von 9-14 kg ermittelt.
(§3) Die Megluminsalzlösungen enthielten 180 mg Jod/ml.
(§4) Die Scanzeit betrug 20 Sekunden, die Röhrenspannung 120 kV. Bei einer Bildmatrix von 320 x 320 Elementen betrug die Standardabweichung vom Mittelwert eines normierten Wasserphantoms 1,6 % (d.h. + 8 EU = EMI-Units.
(§5) Die Auswertung der Computertomogramme stets des gleichen Leberareals erfolgte mit Hilfe der Auswerteeinheit "IVC" der Fa. EMI.

Leber [7] = conditions: dog; cited from earlier work
Leber [8] = conditions: man; cited from earlier work
in vivo [9] = conditions: dog, iv
Description: as §2, §3, §4, §5

Compound | Ratte, intrazisternal, ED50 (Ratte [1]) | Ratte, pericerebral, ED50 (Ratte [2]) | fraction unbound [3] | DL50, i.v., Ratte (Ratte [4]) | Verteilungskoeffizient Butanol/Wasser pH 7.4 [5] | dose excreted at 0.5 h (in vivo [6]) [%] | dose excreted at 3 h (in vivo [6]) [%] | maximale Anreicherung in der Leber des Hundes (Leber des Hundes) | maximale Anreicherung in der Leber des Hundes, min. p. appl. (Leber des Hundes; time of maximum enrichment) [min. p. appl.] | Konzentration in der Leber (Leber [7]) | Konzentration in der Leber (Leber [8]) | Tmax (in vivo [9]) [h]
O=C(CCCCC(=O)Nc1c(I)cc(I)c(C(=O)O)c1I)Nc1c(I)cc(I)c(C(=O)O)c1I [B, Iodipamid] | 1,07 (0,54-1,83) mg Jod/kg | 6,35 (5,11-7,44) mg Jod/kg | 0.23 | 2,6 g Jod/kg | 0,278 ± 0,008 | 59.4 | 91.5 |  |  |  |  | 
CNC(=O)c1c(I)c(NC(=O)CCCCCCCCC(=O)Nc2c(I)c(C(=O)O)c(I)c(C(=O)NC)c2I)c(I)c(C(=O)O)c1I [D, Iosefamsäure] |  |  |  |  |  |  |  | 22,8 EMI-Units | 80 | noch ausreichende | nicht mehr genügende | 
CNC(=O)c1c(I)c(NC(=O)COCC(=O)N(C)c2c(I)cc(I)c(C(=O)O)c2I)c(I)c(C(=O)O)c1I [E, 3-Oxapentan-disäure-l-(3-carboxy-2,4,6-trijod-N-methylanilid)-5-(3-carboxy-5N-methylcarbamoyl-2,4,6-trijodanilid)] |  |  |  |  |  |  |  | 42,1 EMI-Units |  |  |  | 1.5
CNC(=O)c1c(I)c(NC(=O)CCCCC(=O)Nc2c(I)cc(I)c(C(=O)O)c2I)c(I)c(C(=O)O)c1I [Verbindung A, Hexandisäure-1-(3-carboxy-2,4,6-trijod-anilid)-6-(3-carboxy-5-N-methylcarbamoyl-2,4,6-trijodanilid)] | 15,6 (11,5-21,1) mg Jod/kg | 17,1 (11,8-23,6) mg Jod/kg | 0.57 | 5,5 g Jod/kg | 0,083 ± 0,001 | 61.3 | 85.9 |  |  |  |  | 
